The record followed here is paper PMC4538566 (Journal of Medicinal Chemistry, 2015).

Data set [1] concerns triple-negative breast MDA-MB-231. The format is cell-based, human. Conditions: read-out: IC50 MDA-MB-231; 24 h incubation, MTT, mean ± SD (n = 4).
The next data set has as its system pancreas MiaPaca2. The class given is cell-based, human. Conditions: read-out: IC50 MiaPaca2; 24 h incubation, MTT, mean ± SD (n = 4).
A further data set deals with prostate DU-145. The format is cell-based, human. Conditions: read-out: IC50 DU-145; 24 h incubation, MTT, mean ± SD (n = 4).
The subject of another data set is plasmid (pBR322) DNA. As to the kind of experiment: Electrophoresis mobility shift assay with plasmid DNA. The class given is binding. Conditions: 37 °C, 20 h, metal/DNAbp ratios 0.25–2.0.
The subject of a further data set is lung A549. The format is cell-based, human. Conditions: read-out: IC50 A549; 24 h incubation, MTT, mean ± SD (n = 4).
In a further data set the test system is leukemia Jurkat-T. The class given is cell-based, human. Conditions: read-out: IC50 Jurkat; 24 h incubation, MTT, mean ± SD (n = 4).
The subject of data set [2] is non-tumorigenic human embryonic kidney cells HEK293T. The format is cell-based. Conditions: read-out: IC50 HEK-293T; 24 h incubation, MTT, mean ± SD (n = 4).
A further data set is described as follows: In situ rat perfusion. The class given is in vivo. Conditions: 100 μM; for Ka1 absorption rate coefficient: six independent experiments.
The test system of the next data set is Caco-2 monolayers. Put plainly: Caco-2 cell monolayers transport assay. Conditions: Caco-2 monolayers, 20 μM, three independent experiments. The format is in vitro ADME. On the technique in general: Caco-2 cells form a polarised layer with tight junctions and transporters.
Data set [3] is described as follows: Caco-2 cell monolayers transport assay. The class given is in vitro ADME. Conditions: human, Caco-2.

With `N.N.[Cl][Pt][Cl]` [cisplatin], the IC50 – broadly, the concentration that inhibits the measured activity by half – was 131 ± 18 µM in [1]; 76.5 ± 7.4 µM with pancreas MiaPaca2; 112 ± 33 µM with prostate DU-145; 114 ± 9.1 µM in the data set on lung A549; 10.8 ± 1.2 µM with leukemia Jurkat-T; 69 ± 6.7 µM in data set [2]. Moreover, the “effect on electrophoretic mobility of plasmid forms” value in the data set on plasmid (pBR322) DNA is “able to both increase and decrease the mobility of the OC and the CCC forms”.
Turning to `CC(C)NCC(O)COc1ccc(CC(N)=O)cc1` (stereo not drawn) [atenolol], the Peff in “In situ rat perfusion” is listed as 5.19 × 10^–6 cm/s.
As for Lucifer Yellow, in the data set with Caco-2 monolayers, the Peff is 1.90 × 10^–7 cm/s.
For `COCCc1ccc(OCC(O)CNC(C)C)cc1` (stereo not drawn) [metoprolol], the Papp (in general, the rate of passage across a membrane or cell layer, normalised by area and donor concentration) at 90 min, 20 μM in [3] came out at 23.2 ×10⁻⁶ cm/s. Also, in “In situ rat perfusion”, the Peff is on record as 5.40 × 10^–5 cm/s and the “Ka1 absorption rate coefficient” value came out at 2.30 h^–1.
The like results for `CN/C(=N/CCSCc1nc[nH]c1C)NC#N` [cimetidine] were, in that order, 1.86 ×10⁻⁶ cm/s, 3.97 × 10^–5 cm/s and 1.68 h^–1.
